From patent US10077261B2, “Imidazolin-5-one derivative useful as FASN inhibitors for the treatment of cancer” (Janssen Pharmaceutica NV, priority 2012, dated 2018)

Key:
[1] = biological target: T1, hFASN enzyme (full length) (Homo sapiens, UniProt P49327); experiment: Fatty Acid Synthase (FASN) inhibition scintillation proximity assay; format: biochemical; conditions: for inhibition at 10 µM: read-out: Human FASN % inhibition @ 10 μM, 10 μM test compound; for IC50: read-out: Human FASN pIC50 (converted)
T1 construct: 10 μL hFASN enzyme (full length, 300 ng, purified in house); made in house
T1 sequence (P49327 whole entry): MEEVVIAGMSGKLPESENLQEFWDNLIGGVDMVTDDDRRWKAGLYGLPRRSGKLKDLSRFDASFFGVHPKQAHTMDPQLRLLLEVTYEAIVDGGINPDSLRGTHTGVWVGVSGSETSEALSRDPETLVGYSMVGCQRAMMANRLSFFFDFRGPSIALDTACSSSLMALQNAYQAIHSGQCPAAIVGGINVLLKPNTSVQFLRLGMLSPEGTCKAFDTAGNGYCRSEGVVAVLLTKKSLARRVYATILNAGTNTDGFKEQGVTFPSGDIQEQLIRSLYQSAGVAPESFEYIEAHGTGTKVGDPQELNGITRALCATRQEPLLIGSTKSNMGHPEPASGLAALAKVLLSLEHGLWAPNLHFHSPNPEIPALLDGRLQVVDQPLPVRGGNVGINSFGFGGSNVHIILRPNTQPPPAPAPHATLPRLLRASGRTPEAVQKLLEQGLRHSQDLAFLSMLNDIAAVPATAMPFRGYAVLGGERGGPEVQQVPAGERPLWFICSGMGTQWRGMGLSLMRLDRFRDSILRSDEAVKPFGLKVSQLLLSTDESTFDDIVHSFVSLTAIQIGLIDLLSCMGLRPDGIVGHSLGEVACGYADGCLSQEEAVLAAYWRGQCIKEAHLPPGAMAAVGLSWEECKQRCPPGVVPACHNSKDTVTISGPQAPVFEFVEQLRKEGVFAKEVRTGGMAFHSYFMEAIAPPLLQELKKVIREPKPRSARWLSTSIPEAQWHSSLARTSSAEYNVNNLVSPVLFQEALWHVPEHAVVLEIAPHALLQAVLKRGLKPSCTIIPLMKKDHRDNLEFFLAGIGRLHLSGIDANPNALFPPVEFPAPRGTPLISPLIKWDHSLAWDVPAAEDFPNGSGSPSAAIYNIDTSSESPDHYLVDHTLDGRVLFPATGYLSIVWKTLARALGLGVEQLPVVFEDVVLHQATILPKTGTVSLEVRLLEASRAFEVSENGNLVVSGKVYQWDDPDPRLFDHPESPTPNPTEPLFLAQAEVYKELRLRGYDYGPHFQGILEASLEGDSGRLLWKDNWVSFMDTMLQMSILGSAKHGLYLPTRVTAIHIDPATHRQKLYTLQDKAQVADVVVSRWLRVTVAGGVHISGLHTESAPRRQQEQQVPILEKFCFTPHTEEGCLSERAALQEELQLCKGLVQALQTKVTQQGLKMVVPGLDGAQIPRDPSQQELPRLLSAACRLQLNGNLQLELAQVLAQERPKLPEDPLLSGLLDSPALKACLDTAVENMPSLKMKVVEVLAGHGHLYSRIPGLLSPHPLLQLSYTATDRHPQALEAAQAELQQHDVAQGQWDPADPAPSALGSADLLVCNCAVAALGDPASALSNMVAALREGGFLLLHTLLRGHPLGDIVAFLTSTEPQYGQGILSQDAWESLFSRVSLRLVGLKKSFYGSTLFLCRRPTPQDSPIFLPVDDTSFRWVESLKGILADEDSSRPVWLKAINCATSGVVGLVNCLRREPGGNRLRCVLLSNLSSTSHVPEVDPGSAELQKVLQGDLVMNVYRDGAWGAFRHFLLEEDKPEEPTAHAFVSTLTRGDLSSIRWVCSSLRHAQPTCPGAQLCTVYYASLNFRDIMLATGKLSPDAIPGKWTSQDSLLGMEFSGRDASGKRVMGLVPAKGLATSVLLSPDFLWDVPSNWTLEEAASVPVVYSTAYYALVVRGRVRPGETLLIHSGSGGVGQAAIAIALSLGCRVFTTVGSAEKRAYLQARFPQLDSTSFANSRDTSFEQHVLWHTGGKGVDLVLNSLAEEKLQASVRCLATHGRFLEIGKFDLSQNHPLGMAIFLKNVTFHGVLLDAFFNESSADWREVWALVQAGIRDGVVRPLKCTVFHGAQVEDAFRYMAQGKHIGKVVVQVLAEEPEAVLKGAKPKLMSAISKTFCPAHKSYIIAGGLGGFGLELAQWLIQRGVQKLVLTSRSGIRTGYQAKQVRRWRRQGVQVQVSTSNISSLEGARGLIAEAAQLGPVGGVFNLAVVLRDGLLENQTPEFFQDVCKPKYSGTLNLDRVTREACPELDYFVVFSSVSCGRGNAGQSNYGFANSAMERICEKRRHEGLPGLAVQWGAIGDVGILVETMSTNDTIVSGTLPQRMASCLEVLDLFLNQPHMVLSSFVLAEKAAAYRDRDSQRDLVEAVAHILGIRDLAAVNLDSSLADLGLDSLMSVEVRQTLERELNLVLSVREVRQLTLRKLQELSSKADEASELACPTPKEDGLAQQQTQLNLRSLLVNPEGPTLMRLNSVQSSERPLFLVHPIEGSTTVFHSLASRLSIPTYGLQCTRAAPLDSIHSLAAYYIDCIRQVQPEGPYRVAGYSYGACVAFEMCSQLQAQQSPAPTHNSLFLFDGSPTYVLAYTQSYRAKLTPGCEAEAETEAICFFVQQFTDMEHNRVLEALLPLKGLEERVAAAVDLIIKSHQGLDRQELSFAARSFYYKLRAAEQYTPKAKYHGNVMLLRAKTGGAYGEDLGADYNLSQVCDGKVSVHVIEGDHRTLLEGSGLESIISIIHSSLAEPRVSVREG
Summary of the method: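 Full-length in-house purified enzyme (300 ng) was tested in 100 mM KH2PO4 pH 7.5, 1 mM DTT with ³H-acetyl-CoA and malonyl-CoA as substrates; compounds ranged 0.01–30 μM. Reactions were stopped with streptavidin imaging beads, read by LEADseeker at 610 nm, and fitted to a 4-parameter logistic curve.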

A2780 ovarian cells [2] = experiment: A2780 ovarian cell proliferation assay in lipid reduced medium, with palmitate (MTT); format: cell-based; conditions: Homo sapiens, A2780, 96 h; read-out: pIC50 A2780 Ovarian Cell, With Palmitate (converted)
Summary of the method: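 Seeded cells were switched next day to lipid-reduced serum, exposed to compound and 25 μM palmitate complexed with fatty-acid-free BSA, and incubated 96 h. Proliferation was then determined by MTT absorbance at 544 nm, with a best-fit curve of signal against concentration.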

A2780 ovarian cells [3] = experiment: A2780 ovarian cell proliferation assay in lipid reduced medium, without palmitate (MTT); format: cell-based; conditions: Homo sapiens, A2780, 96 h; read-out: pIC50 A2780 Ovarian Cell, Without Palmitate (converted)
[4] = system: LNCaP-Vancouver prostate cells; experiment: In vitro LNCaP Vancouver prostate cell proliferation assay in lipid reduced medium; format: cell-based; conditions: read-out: pIC50 LNCaP_Vancouver prostate cell (converted)
[5] = system: PC-3M-Luc-C6 prostate cells; experiment: In vitro PC-3M-Luc-C6 prostate cell proliferation assay in lipid reduced medium; format: cell-based; conditions: 96 h, read-out: pIC50 PC-3M-Luc-C6 prostate cell (converted)
[6] = biological target: Fatty Acid Synthase Keto-reductase Domain (FASN KR) (Homo sapiens, UniProt P49327); experiment: Fatty Acid Synthase keto-reductase domain (FASN KR) inhibition, NADPH oxidation at 340 nm
Fatty Acid Synthase Keto-reductase Domain (FASN KR), sequence (P49327 whole entry, the tested form may be a part): as the sequence (P49327 whole entry) above
Method: After 20 minutes incubation at room temperature the plate was measured again (T2).
The decrease in absorbance was calculated as (Absorbance before incubation T1)−(Absorbance following incubation T2).
A plot of Controlmin versus test compound concentration was fitted to a 4-parameter logistic curve using a non-linear least squares regression method.

Row | Structure (SMILES) | inhibition at 10 µM [1] | IC50 [1] | IC50 (A2780 ovarian cells [2]) | IC50 (A2780 ovarian cells [3]) | IC50 [4] | IC50 [5] | IC50 [6]
1 | COCc1nn(C)c2cc(-c3ccc(C4=NC5(CC5)C(=O)N4C[C@@H]4CCN(C(=O)C5CC5)C4)cc3)ccc12 [compound 484, 6-{[(3R)-1-(Cyclopropylcarbonyl)pyrrolidin-3-yl]methyl}-5-{4-[3-(methoxymethyl)-1-methyl-1H-indazol-6-yl]phenyl}-4,6-diazaspiro[2.4]hept-4-en-7-one] | 99% | 151 nM | > 10000 nM | 95.5 nM | 550 nM | 151 nM | 257 nM
2 | Cn1nc(CO)c2ccc(-c3ccc(C4=NC5(CC5)C(=O)N4C[C@@H]4CCN(C(=O)C5CC5)C4)cc3)cc21 [compound 485, 6-{[(3R)-1-(Cyclopropylcarbonyl)pyrrolidin-3-yl]methyl}-5-{4-[3-(hydroxymethyl)-1-methyl-1H-indazol-6-yl]phenyl}-4,6-diazaspiro[2.4]hept-4-en-7-one] | 96% | 162 nM | > 10000 nM | ~123 nM | 631 nM | 214 nM | 302 nM
3 | COCc1c2ccc(-c3ccc(C4=NC5(CC5)C(=O)N4C[C@@H]4CCN(C(=O)C5CC5)C4)cc3)cc2nn1C [compound 486, 6-{[(3R)-1-(Cyclopropylcarbonyl)pyrrolidin-3-yl]methyl}-5-{4-[3-(methoxymethyl)-2-methyl-2H-indazol-6-yl]phenyl}-4,6-diazaspiro[2.4]hept-4-en-7-one] | 81% | 1510 nM | > 10000 nM | ~2190 nM | 4470 nM | ~2820 nM | 2630 nM
4 | Cc1cc(-c2ccc3c(cnn3C)c2)ccc1C1=NC2(CC2)C(=O)N1CC1CN(C(=O)N(C)C)C1 [compound 488, N,N-Dimethyl-3-({5-[2-methyl-4-(1-methyl-1H-indazol-5-yl)phenyl]-7-oxo-4,6-diazaspiro[2.4]hept-4-en-6-yl}methyl)azetidine-1-carboxamide] | 88% | 214 nM | > 10000 nM | 302 nM | 1550 nM | 575 nM | 501 nM
5 | Cn1nc(C#N)c2ccc(-c3ccc(C4=NC5(CC5)C(=O)N4C[C@@H]4CCN(C(=O)C5CC5)C4)cc3)cc21 [compound 493, 6-[4-(6-{[(3R)-1-(Cyclopropylcarbonyl)pyrrolidin-3-yl]methyl}-7-oxo-4,6-diazaspiro[2.4]hept-4-en-5-yl)phenyl]-1-methyl-1H-indazole-3-carbonitrile] | 98% | 166 nM | > 10000 nM | ~209 nM | 1260 nM | 158 nM | 427 nM
6 | NC(=O)c1cccc(-c2ccc(C3=NC4(CC4)C(=O)N3C[C@@H]3CCN(C(=O)C4CC4)C3)cc2)c1 [compound 494, 4′-(6-{[(3R)-1-(Cyclopropylcarbonyl)pyrrolidin-3-yl]methyl}-7-oxo-4,6-diazaspiro[2.4]hept-4-en-5-yl)biphenyl-3-carboxamide] | 95% | 219 nM | > 10000 nM | 692 nM | 4680 nM | 891 nM | 661 nM
7 | Cc1cc(-c2ccc3c(cnn3C)c2)ccc1C1=NC2(CC2)C(=O)N1CC1CN(C(=O)C(C)(C)O)C1 [compound 495, 6-{[1-(2-Hydroxy-2-methylpropanoyl)azetidin-3-yl]methyl}-5-[2-methyl-4-(1-methyl-1H-indazol-5-yl)phenyl]-4,6-diazaspiro[2.4]hept-4-en-7-one] | 95% | 257 nM | > 10000 nM | 275 nM | ~3240 nM | ~589 nM | 724 nM
8 | Cc1cc(-c2ccc3c(cnn3C)c2)ccc1C1=NC2(CC2)C(=O)N1CC1CN(C(=O)C2(C)COC2)C1 [compound 496, 5-[2-Methyl-4-(1-methyl-1H-indazol-5-yl)phenyl]-6-({1-[(3-methyloxetan-3-yl)carbonyl]azetidin-3-yl}methyl)-4,6-diazaspiro[2.4]hept-4-en-7-one] | 94% | 302 nM | > 10000 nM | 209 nM | 1740 nM | ~355 nM | 575 nM
9 | Cc1cc(-c2ccc(C3=NC4(CC4)C(=O)N3CC3CN(C(=O)C4CC4)C3)c(F)c2)cc2cnn(C)c12 [compound 520, 6-{[1-(Cyclopropylcarbonyl)azetidin-3-yl]methyl}-5-[4-(1,7-dimethyl-1H-indazol-5-yl)-2-fluorophenyl]-4,6-diazaspiro[2.4]hept-4-en-7-one] | 97% | 427 nM | > 10000 nM | 389 nM | 2570 nM | 501 nM | 631 nM
10 | CCn1ncc2cc(-c3ccc(C4=NC5(CC5)C(=O)N4CC4CN(C(=O)C5CC5)C4)c(F)c3)ccc21 [compound 521, 6-{[1-(Cyclopropylcarbonyl)azetidin-3-yl]methyl}-5-[4-(1-ethyl-1H-indazol-5-yl)-2-fluorophenyl]-4,6-diazaspiro[2.4]hept-4-en-7-one] | 94% | 513 nM | > 10000 nM | ~339 nM | 1910 nM | 603 nM | 676 nM
11 | O=C(C1CC1)N1CC(CN2C(=O)C3(CC3)N=C2c2ccc(-c3ccc4c(cnn4CC4CC4)c3)cc2F)C1 [compound 523, 6-{[1-(Cyclopropylcarbonyl)azetidin-3-yl]methyl}-5-{4-[1-(cyclopropylmethyl)-1H-indazol-5-yl]-2-fluorophenyl}-4,6-diazaspiro[2.4]hept-4-en-7-one] | 92% | 513 nM | > 10000 nM | 676 nM | 3240 nM | 1170 nM | 1480 nM
12 | O=C(C1CC1)N1CC(CN2C(=O)C3(CC3)N=C2c2ccc(-c3ccc(-n4ccnc4)nc3)cc2F)C1 [compound 526, 6-{[1-(Cyclopropylcarbonyl)azetidin-3-yl]methyl}-5-{2-fluoro-4-[6-(1H-imidazol-1-yl)pyridin-3-yl]phenyl}-4,6-diazaspiro[2.4]hept-4-en-7-one] | 93% | 912 nM | > 10000 nM | ~1020 nM | 5890 nM | 1480 nM | 2190 nM
13 | O=C(C1CC1)N1CC[C@@H](CN2C(=O)C3(CC3)N=C2c2ccc(-c3n[nH]c4ccccc34)cc2F)C1 [compound 529, 6-{[(3R)-1-(Cyclopropylcarbonyl)pyrrolidin-3-yl]methyl}-5-[2-fluoro-4-(1H-indazol-3-yl)phenyl]-4,6-diazaspiro[2.4]hept-4-en-7-one] | 96% | 102 nM | > 10000 nM | ~83.2 nM | 724 nM | ~83.2 nM | 155 nM
14 | O=C(C1CC1)N1CC(CN2C(=O)C3(CC3)N=C2c2ccc(-c3cc4ccccc4cn3)cc2)C1 [compound 531, 6-{[1-(Cyclopropylcarbonyl)azetidin-3-yl]methyl}-5-(4-isoquinolin-3-ylphenyl)-4,6-diazaspiro[2.4]hept-4-en-7-one] | 96% | 170 nM | > 10000 nM | 148 nM | 1350 nM | 302 nM | 537 nM
15 | Cn1cc(-c2ccc(-c3ccc(C4=NC5(CC5)C(=O)N4CC4CN(C(=O)C5CC5)C4)cc3)nc2)cn1 [compound 534, 6-{[1-(Cycloprropylcarbonyl)azetidin-3-yl]methyl}-5-{4-[5-(1-methyl-1H-pyrazol-4-yl)pyridin-2-yl]phenyl}-4,6-diazaspiro[2.4]hept-4-en-7-one] | 95% | 162 nM | > 10000 nM | 776 nM | ~5620 nM | 1000 nM | 1380 nM
16 | O=C(C1CC1)N1CC(CN2C(=O)C3(CC3)N=C2c2ccc(-c3ccc4nn(CCO)cc4c3)cc2F)C1 [compound 536, 6-{[1-(Cyclopropylcarbonyl)azetidin-3-yl]methyl}-5-{2-fluoro-4-[2-(2-hydroxyethyl)-2H-indazol-5-yl]phenyl}-4,6-diazaspiro[2.4]hept-4-en-7-one] | 88% | 1230 nM | > 10000 nM | 955 nM | ~7590 nM | ~3090 nM | 3550 nM
17 | O=C(C1CC1)N1CC(CN2C(=O)C3(CC3)N=C2c2ccc(-c3ccc(Cl)cc3F)cc2F)C1 [compound 537, 5-(4′-Chloro-2′,3-difluorobiphenyl-4-yl)-6-{[1-(cyclopropylcarbonyl)azetidin-3-yl]methyl}-4,6-diazaspiro[2.4]hept-4-en-7-one] | 99% | 174 nM | > 10000 nM | 263 nM | 1320 nM | 617 nM | 427 nM
